Data reported in article PMC10877733, “Discovery and Characterization of VU0542270, the First Selective Inhibitor of Vascular Kir6.1/SUR2B KATP Channels” (Molecular Pharmacology, 2024).
Entries after “also recorded” stand apart in the source; their conditions may differ.

What was measured:
[1] = Intrinsic clearance in liver microsomes, mouse; format: in vitro ADME
Protocol: The in vitro intrinsic clearance (CLint) of VU0542270 was investigated in commercially obtained hepatic microsomes from rat, mouse, and human donors using the substrate depletion (i.e., loss-of-parent versus time, or t1/2 method) approach with analyte detection via LC-MS/MS. For each species, mean per cent parent remaining values at each time point were calculated from replicates raw data (analyte:IS peak area ratios) and used to determine in vitro t1/2 and CLint.
Experiments were carried out using a robot-assisted liquid handling system (TECAN model Evo 200). VU0542270 was incubated (1 µM final concentration) in buffer (100 mM potassium phosphate, pH 7.4, with 3 mM MgCl2) containing hepatic microsomes (0.5 mg/mL final concentration) from multiple species, discretely, at 37°C under constant orbital shaking. After 5 minutes (preincubation), reactions were initiated by the addition of NADPH (1 mM final concentration). At selected time intervals (0, 3, 7, 15, 25, and 45 minutes) post addition of NADPH, aliquots (50 µL) were taken and placed into a 96-shallow-well plate containing ice-cold acetonitrile (150 µL) with carbamazepine (IS, 50 nM). The plates were then centrifuged (3000 rcf at 4°C) for 10 minutes. […]
Predicted hepatic clearance (CLhep) was calculated using the following equation: [drawing 4] […]

Kir6.2/SUR1 = target: T1, Kir6.2/SUR1 (Homo sapiens, UniProt Q09428); assay: Thallium flux assay of Kir6.2/SUR1 in HEK293 cells; format: cell-based
T1 construct: expressed in transfected cells; also transiently transfected HEK293T
Protocol: The pcDNA3.1-SUR2B plasmid was generously provided by Dr. Colin Nichols (Washington University). The pcDNA5/TO-Kir6.1 plasmid was synthesized by GenScript. […] For selectivity assays, HEK293T cells were cotransfected with Kir6.x and SURX with Lipofectamine LTX and incubated for 48 hours before thallium flux assays.
Stable T-Rex-HEK293-Kir6.1/SUR2B cells or transiently transfected HEK293T cells were plated in polyamine-coated, clear-bottomed, black-walled 384-well plates and were cultured (37°C/5% CO2) overnight in Dulbecco’s modified Eagle’s medium (Gibco, Carlsbad, CA, 11995-065) containing 10% FBS (2 mM Penicillin-Streptomycin). The following day, cells were washed with assay buffer (i.e., Hanks’ balanced salt solution/20 mM HEPES) and loaded for 1 hour with thallium sensor dye Brilliant Thallium (Ion Bioscience, San Marcos, TX) at room temperature. Dye-loaded cells were washed with assay buffer and transferred to a Panoptic Kinetic Imaging Plate Reader (Wavefront Bioscience, Franklin, TN). Control and test compound treatments were for 4 minutes prior to adding 0.5 mM chloride-free thallium stimulus buffer (Ion Bioscience) to initiate thallium flux.

T1 sequence (Q09428 whole entry, species assumed): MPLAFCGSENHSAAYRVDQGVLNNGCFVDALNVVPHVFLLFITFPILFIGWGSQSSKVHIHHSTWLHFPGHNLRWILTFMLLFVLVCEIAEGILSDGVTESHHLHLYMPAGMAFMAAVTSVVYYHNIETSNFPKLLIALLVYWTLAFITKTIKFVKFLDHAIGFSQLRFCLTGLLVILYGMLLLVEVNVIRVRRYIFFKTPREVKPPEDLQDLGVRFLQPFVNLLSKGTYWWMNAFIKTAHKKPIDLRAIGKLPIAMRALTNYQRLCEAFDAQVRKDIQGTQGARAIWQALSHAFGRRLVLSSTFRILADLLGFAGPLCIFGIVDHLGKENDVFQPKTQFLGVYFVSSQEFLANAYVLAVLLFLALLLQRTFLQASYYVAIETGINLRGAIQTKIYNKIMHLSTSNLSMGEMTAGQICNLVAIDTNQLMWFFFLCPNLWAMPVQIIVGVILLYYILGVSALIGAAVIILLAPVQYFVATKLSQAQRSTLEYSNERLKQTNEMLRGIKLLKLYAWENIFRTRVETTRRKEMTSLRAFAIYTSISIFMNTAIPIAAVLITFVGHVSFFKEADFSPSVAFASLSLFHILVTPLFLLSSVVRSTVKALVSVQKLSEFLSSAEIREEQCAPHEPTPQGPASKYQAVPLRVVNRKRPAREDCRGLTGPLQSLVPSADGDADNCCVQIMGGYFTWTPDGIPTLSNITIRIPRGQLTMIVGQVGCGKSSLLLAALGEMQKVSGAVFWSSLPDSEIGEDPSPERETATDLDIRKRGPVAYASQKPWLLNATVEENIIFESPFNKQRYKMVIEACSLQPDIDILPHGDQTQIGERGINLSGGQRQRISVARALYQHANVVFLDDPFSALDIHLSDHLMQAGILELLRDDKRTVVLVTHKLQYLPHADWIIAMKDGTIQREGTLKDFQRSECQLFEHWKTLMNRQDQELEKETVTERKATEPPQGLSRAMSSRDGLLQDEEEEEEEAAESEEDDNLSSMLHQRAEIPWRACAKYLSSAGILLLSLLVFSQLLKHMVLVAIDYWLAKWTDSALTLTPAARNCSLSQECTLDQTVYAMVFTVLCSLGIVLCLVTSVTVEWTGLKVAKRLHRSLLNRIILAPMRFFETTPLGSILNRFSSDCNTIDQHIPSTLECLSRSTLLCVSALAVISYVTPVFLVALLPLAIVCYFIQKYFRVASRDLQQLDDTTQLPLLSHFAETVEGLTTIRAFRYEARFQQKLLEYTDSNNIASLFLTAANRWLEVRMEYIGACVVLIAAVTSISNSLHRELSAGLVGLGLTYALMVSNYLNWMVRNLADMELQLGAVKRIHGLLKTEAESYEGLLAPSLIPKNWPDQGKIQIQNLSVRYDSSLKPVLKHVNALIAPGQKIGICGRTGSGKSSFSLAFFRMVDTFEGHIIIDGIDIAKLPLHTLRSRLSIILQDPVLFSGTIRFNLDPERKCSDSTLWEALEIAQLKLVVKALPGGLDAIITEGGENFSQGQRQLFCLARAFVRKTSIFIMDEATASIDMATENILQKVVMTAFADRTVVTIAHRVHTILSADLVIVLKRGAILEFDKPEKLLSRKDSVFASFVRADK
T1 sequence (Q14654 whole entry partner, species assumed): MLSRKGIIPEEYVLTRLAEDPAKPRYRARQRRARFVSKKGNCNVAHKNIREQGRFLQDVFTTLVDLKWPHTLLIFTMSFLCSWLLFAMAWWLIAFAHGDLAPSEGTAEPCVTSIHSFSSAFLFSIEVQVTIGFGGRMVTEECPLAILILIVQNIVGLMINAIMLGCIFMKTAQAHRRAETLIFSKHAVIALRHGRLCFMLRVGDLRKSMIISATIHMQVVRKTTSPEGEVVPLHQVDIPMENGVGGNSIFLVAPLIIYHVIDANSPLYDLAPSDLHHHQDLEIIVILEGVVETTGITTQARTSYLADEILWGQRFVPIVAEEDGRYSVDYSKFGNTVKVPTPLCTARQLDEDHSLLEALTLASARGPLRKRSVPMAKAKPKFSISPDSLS

- Predicted CLhep,u (mouse) ([1]; corrected to plasma unbound fraction): 27 mL/min per kg
- Predicted CLhep (mouse) ([1]; from microsomal CLint): 88 mL/min per kg
- activity toward Kir6.2/SUR1 (Kir6.2/SUR1; doses up to 30 µM): no apparent activity
- IC50 (Kir6.2/SUR1; thallium flux, Table 1 selectivity profile): > 30 µM
- Kir6.2/SUR1 IC50, ATP depletion (Kir6.2/SUR1; thallium flux, transfected HEK-293 cells, channels activated by metabolic inhibition (ATP depletion) (Fig. 4B)): failed to inhibit; also recorded: no fit
- Kir6.2/SUR1 IC50, VU0071063 activation (Kir6.2/SUR1; thallium flux, transfected HEK-293 cells, channels activated with VU0071063 (Fig. 4A)): failed to inhibit; also recorded: no fit
SMILES: Cc1nc(-c2cccs2)sc1CNC(=O)Nc1cccs1 [VU0542270]
